Like-named read-outs stand apart in the source and are kept apart here.
How the values were obtained:
gal4 = biological target: T1, gal4 (Homo sapiens, UniProt P56470); assay: Solid phase binding-inhibition assay: gal4 binding to asialofetuin; conditions: read-out: I50 value
T1 sequence (P56470 1-323): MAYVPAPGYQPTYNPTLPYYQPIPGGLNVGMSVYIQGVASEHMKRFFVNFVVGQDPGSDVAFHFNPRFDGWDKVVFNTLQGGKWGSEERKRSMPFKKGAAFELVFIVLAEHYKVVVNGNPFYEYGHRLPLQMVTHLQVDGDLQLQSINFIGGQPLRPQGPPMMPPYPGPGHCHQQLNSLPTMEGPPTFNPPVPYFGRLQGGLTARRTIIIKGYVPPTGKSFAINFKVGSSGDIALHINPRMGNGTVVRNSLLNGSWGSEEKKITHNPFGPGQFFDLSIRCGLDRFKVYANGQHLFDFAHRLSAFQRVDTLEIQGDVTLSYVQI

MOLT-4 cells = assay: Gal3-mediated apoptosis of MOLT-4 cells (annexin V); type: cell-based, human
[1] = system: activated pmel T cells on B16 melanoma cells; assay: B16 melanoma cell-associated apoptosis of activated pmel T cells; type: cell-based, mouse; conditions: B16 monolayer about 24 h; untreated about 53%; TFD100 3.5 nM, lactose 50 μM
Description: To investigate if tumor-associated gal3 can induce tumor specific CD8 T cells, we used B16 melanoma-specific transgenic D90.1 CD8 T cells (pmel T cells) (40). After harvesting T cells from mouse spleen, cells were activated with a peptide (40), mixed with a monolayer of B16 melanoma cells and apoptosis was measured by Annexin V binding after gating with anti-CD8 antibodies.

Jurkat cells = assay: Gal3-mediated apoptosis of Jurkat cells; type: cell-based, human
Description: (§1) Jurkat cells were used for gal3-mediated apoptosis at various concentration of gal3. To investigate gal3-mediated apoptosis of human CD8^+ cells, peripheral blood mononuclear cells (PBMCs) were isolated from chronic leukemia patients using Ficoll-paque density gradient method (39) followed by negative selection of CD8^+ cells with a cocktail of antibodies using a kit (BD Biosciences, MD). The presence of CD8^+ cells in the purified fraction was confirmed by staining cells with anti-CD8 antibody.

human CD8+ T cells = assay: Gal3-mediated apoptosis of human CD8+ T cells (annexin V); type: cell-based
Description: as §1

[2] = biological target: gal9N (N-terminal of gal9) (UniProt O00182); assay: Solid phase binding-inhibition assay: gal9N binding to asialofetuin; conditions: read-out: I50 value
gal3 [3] = biological target: T2, gal3 (Homo sapiens, UniProt P17931); assay: Surface plasmon resonance (Biacore) kinetics and affinity for gal3; type: binding; conditions: SPR, biotinylated gal3 on chip
T2 construct: made in house
T2 sequence (P17931 whole entry): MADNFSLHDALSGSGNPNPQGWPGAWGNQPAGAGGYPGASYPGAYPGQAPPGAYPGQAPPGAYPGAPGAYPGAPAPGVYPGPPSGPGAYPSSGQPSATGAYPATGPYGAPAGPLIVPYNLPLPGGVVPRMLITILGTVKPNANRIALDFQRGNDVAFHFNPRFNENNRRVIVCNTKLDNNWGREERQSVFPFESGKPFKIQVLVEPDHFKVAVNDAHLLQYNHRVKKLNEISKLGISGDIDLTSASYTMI
Description: The binding kinetics and affinity of a few carbohydrates for gal3 were measured in Surface Plasmon Resonance (SPR)-based binding assays using a Biacore™ T200 instrument (GE Healthcare). Biotinylated gal3 was attached to Biacore Sensor Chip SA (GE Healthcare) according to the instructions. For this purpose, biotinlyated gal3 was diluted into HBS-EP+ (GE Heathcare) to a concentration of 1 μg/mL and captured onto the streptavidin surface to a final level of 1750 RU. A reference surface was prepared with biotin captured onto the streptavidin. […] The binding response of small carbohydrate ligands were measured in Resonance units (RU) in real time at 10 HZ. These carbohydrates were injected for 30 seconds at 50 μL/min, and 30 seconds of dissociation data were collected. […] Raw sensorgram data were reference subtracted and blank subtracted prior to kinetic and affinity analysis. Biacore™ T200 Evaluation software was used for Steady-state affinity analysis and kinetic analysis.

gal3 [4] = biological target: T2, gal3; assay: Solid phase binding-inhibition assay: gal3 binding to asialofetuin; conditions: for IC50: read-out: I50 value (converted)
Description: Briefly, asialofetuin (0.5 μg/100 μl/well) in 0.1 M Na2CO3/0.02% NaN3 (pH 9.6) was adsorbed onto the wells of microtiter plates (Immulon; Dynatech Laboratories, Chantilly, Va.) at 37° C. for 3 h, and the bound glycoprotein was fixed with 2% formaldehyde in phosphate-buffered saline (PBS, 10 mM phosphate, 140 mM NaCl, pH 7.5) at 37° C. for 30 min. The plates were washed three times with PBS (azide-free)/0.05% Tween 20, and incubated with the gal3-biotin conjugate (10 ng/100 μl/well for binding assays) or with preincubated mixture of equal volume of conjugate and varying concentrations of test ligands (for binding-inhibition assays). After incubation for 1 h at 4° C., the plates were washed with ice-cold azide-free PBS-Tween 20, and the bound conjugate was allowed to interact with peroxidase labeled streptavidin (0.05 μg/100 μl well) in azide-free PBS-Tween for 1 h at 4° C. The plate was washed with ice-cold azide free PBS-Tween and the bound peroxidase activity was assayed with peroxidase substrate diammonium 2,2′-azinobis(3-ethylbenzothiazoline-6-sulfonate) (KPL, Rockville, Md.) (37). […] After incubation for 2 h on ice, the mix was dialyzed with PBS and purified by affinity chromatography on lactosyl-Sepharose (37). The purified gal3-biotin conjugate was dialyzed with PBS and stored in 1% BSA-50% glycerol at −20° C. until further use. […] O-Glycosidase treatment removes TF-disaccharide from protein (cleaves GalNAc-Ser/Thr linkage).

pmel T cells = assay: Recombinant gal3-mediated apoptosis of tumor-specific CD8+ (pmel) T cells; type: cell-based, mouse
HUVEC = assay: In vitro angiogenesis (tube formation) of HUVEC; type: cell-based, human; conditions: recombinant gal3 5 μM, number of branching
Description: After 5 h, the microvessel formation was analyzed under phase contrast microscope at the 10× magnification. For quantitation of tube formation, the number of branching was counted in six areas (each […]) of each well and an average value was taken.

OC[C@H]1O[C@@H](O[C@H]2[C@H](O)[C@@H](O)C(O)O[C@@H]2CO)[C@H](O)[C@@H](O)[C@H]1O (some centres unmarked) [Lactose]
IC50 (gal4): 10 mM
inhibition at 50 µM (MOLT-4 cells; Homo sapiens, MOLT-4): ~20%
apoptosis of T cells reduced to [1]: 39%
inhibition at 50 µM (Jurkat cells; Homo sapiens, Jurkat): ~30%
inhibition at 50 µM (human CD8+ T cells; Homo sapiens, T-cell): ~67%
IC50 [2]: 100 µM

CC(=O)N[C@H]1C(O)O[C@H](CO)[C@@H](O[C@@H]2O[C@H](CO)[C@H](O)[C@H](O)[C@H]2O)[C@@H]1O (some centres unmarked) [N-acetyllactosamine]
Kd (gal3 [3]): 25 µM

CC(=O)NC1C(O)OC(CO)C(O)C1OC1OC(CO)C(O)C(O)C1O (centres unmarked) [TFD, Galβ1,3GalNAc]
RIA, relative inhibitory activity compared to lactose (taken as 1) (gal3 [4]; from I50 in μg/ml, Table 1): 0.47
IC50 (gal3 [4]; gal3 binding to asialofetuin): 200 µM
IC50 (gal3 [4]; inhibition of gal3 binding to asialofetuin, Table 1): 151 µM
Kd (gal3 [3]): 636 µM

gal3: purified recombinant galectin-3, used as inducer of angiogenesis and T cell apoptosis
cells undergoing apoptosis (MOLT-4 cells; gal3 5 μM, annexin V): ~50%
gal3-mediated apoptosis (Jurkat cells; gal3 5 μM): ~34%
cells death (human CD8+ T cells; gal3 5 μM, flow cytometry): ~54%
cell death of non-activated CD8+ T cells (pmel T cells; gal3 up to 15 μM, same as cells alone): ~22%
apoptosis of activated CD8+ T cells (pmel T cells; recombinant gal3 5 μM, CD8 alone ~61%): ~76%
enhancement of tube formation (HUVEC): ~25%
